The record followed here is US20230079045A1 (priority 2019, published 2023).

The experiment deals with IFV A/PR/8/34. The experiment in a line: cytopathic effect (CPE) antiviral test in MDCK cells, IFV A/PR/8/34. Format: cell-based, influenza virus. To be noted: unidentified influenza virus, PR/8, MDCK, 120 h, read-out: EC50(IFV A/PR/8/34). A general note: Protection from cytopathic effect is a common read-out in antiviral testing.

As to `[2H]C([2H])([2H])C(C(=O)Nc1ccc2oc(-c3ccnc(C(=O)N4CCC(C(c5ccccc5)n5nnc(C(F)F)n5)CC4)c3)nc2c1)C([2H])([2H])[2H]` (racemic) [Compound 163, 3,3,3-tideuterio-N-[2-[2-[4-[(R/S)-[5-(difluoromethyl)tetrazol-2-yl]-phenyl-methyl]piperidine-1-carbonyl]-4-pyridyl]-1,3-benzoxazol-5-yl]-2-(trideuteriomethyl)propanamide], the EC50 came out at 8 nM.

As for `CC(C)(F)C(=O)Nc1ccc2oc(-c3ccnc(C(=O)N4CCC(C(c5ccccc5)n5nnc(C(F)F)n5)CC4)c3)nc2c1` (racemic) [Compound 164, (R/S)—N-(2-(2-(4-((5-(difluoromethyl)-2H-tetrazol-2-yl)(phenyl)methyl)piperidine-1-carbonyl)pyridin-4-yl)benzo[d]oxazol-5-yl)-2-fluoro-2-methylpropanamide], the EC50 turned out to be 13 nM.

Regarding `Cn1cc(-c2ccc3oc(-c4ccnc(C(=O)N5CCN(C(c6ccccc6)c6nnn(C(F)F)n6)CC5)c4)cc3c2)cn1` (racemic) [Compound 165, (R/S)-(4-((2-(difluoromethyl)-2H-tetrazol-5-yl)(phenyl)methyl)piperazin-1-yl)(4-(5-(1-methyl-1H-pyrazol-4-yl)benzofuran-2-yl)pyridin-2-yl)methanone], the EC50 amounted to 10 nM. In the case of `Cn1cncc1-c1ccc2oc(-c3ccnc(C(=O)N4CCC(C(c5ccccc5)n5nnc(C(F)F)n5)CC4)c3)nc2c1` (racemic) [Compound 166, (R/S)-(4-((5-(difluoromethyl)-2H-tetrazol-2-yl)(phenyl)methyl)piperidin-1-yl)(4-(5-(1-methyl-1H-imidazol-5-yl)benzo[d]oxazol-2-yl)pyridin-2-yl)methanone], the EC50 worked out at 6 nM.

As for `Cc1nnn(C(c2ccccc2)C2CCN(C(=O)c3cc(-c4nc5cc(-c6cncn6C)ccc5o4)ccn3)CC2)n1` (racemic) [Compound 167, (R/S)-(4-(5-(1-methyl-1H-imidazol-5-yl)benzo[d]oxazol-2-yl)pyridin-2-yl)(4-((5-methyl-2H-tetrazol-2-yl)(phenyl)methyl)piperidin-1-yl)methanone], the EC50 turned out to be 5 nM. Consider `O=C(c1cc(-c2nc3cc(-c4cn(C(F)F)cn4)ccc3o2)ccn1)N1CCN(C(c2ccccc2)c2nnn(C(F)F)n2)CC1` (racemic) [Compound 170, (R/S)-(4-(5-(1-(difluoromethyl)-1H-imidazol-4-yl)benzo[d]oxazol-2-yl)pyridin-2-yl)(4-((2-(difluoromethyl)-2H-tetrazol-5-yl)(phenyl)methyl)piperazin-1-yl)methanone], for which the EC50 is 7 nM.

Consider `O=C(c1cc(-c2nc3cc(-c4cncn4C(F)F)ccc3o2)ccn1)N1CCN(C(c2ccccc2)c2nnn(C(F)F)n2)CC1` (racemic) [Compound 171, (R/S)-(4-(5-(1-(difluoromethyl)-1H-imidazol-5-yl)benzo[d]oxazol-2-yl)pyridin-2-yl)(4-((2-(difluoromethyl)-2H-tetrazol-5-yl)(phenyl)methyl)piperazin-1-yl)methanone], for which the EC50 was 5 nM. Take `O=C(c1cc(-c2nc3cc(-c4cnoc4)ccc3o2)ccn1)N1CCN(C(c2ccccc2)c2nnn(C(F)F)n2)CC1` (racemic) [Compound 174, (R/S)-(4-((2-(difluoromethyl)-2H-tetrazol-5-yl)(phenyl)methyl)piperazin-1-yl)(4-(5-(isoxazol-4-yl)benzo[d]oxazol-2-yl)pyridin-2-yl)methanone]: the EC50 is 15 nM.

In the case of `Cc1nnn(C(c2ccccc2)C2CCN(C(=O)c3cc(-c4nc5cc(-c6ccn(C)n6)ccc5o4)ccn3)CC2)n1` (racemic) [Compound 183, (R/S)-(4-(5-(1-methyl-1H-pyrazol-3-yl)benzo[d]oxazol-2-yl)pyridin-2-yl)(4-((5-methyl-2H-tetrazol-2-yl)(phenyl)methyl)piperidin-1-yl)methanone], the EC50 was 18 nM.

As for `Cc1nnn(C(c2ccccc2)C2CCN(C(=O)c3cc(-c4cc5cc(-c6cncn6C)ccc5o4)ccn3)CC2)n1` (racemic) [Compound 186, (R/S)-(4-(5-(1-methyl-1H-imidazol-5-yl)benzofuran-2-yl)pyridin-2-yl)(4-((5-methyl-2H-tetrazol-2-yl)(phenyl)methyl)piperidin-1-yl)methanone], the EC50 amounted to 2 nM. Turning to `Cc1nnn(C(c2ccccc2)C2CCN(C(=O)c3cc(-c4nc5cc(-c6cnn(C)c6C)ccc5o4)ccn3)CC2)n1` (racemic) [Compound 187, (R/S)-(4-(5-(1,5-dimethyl-1H-pyrazol-4-yl)benzo[d]oxazol-2-yl)pyridin-2-yl)(4-((5-methyl-2H-tetrazol-2-yl)(phenyl)methyl)piperidin-1-yl)methanone], the EC50 is 6 nM.

Regarding `Cc1cn(-c2ccc3oc(-c4ccnc(C(=O)N5CCC(C(c6ccccc6)n6nnc(C)n6)CC5)c4)nc3c2)cn1` (racemic) [Compound 189, (R/S)-(4-(5-(4-methyl-1H-imidazol-1-yl)benzo[d]oxazol-2-yl)pyridin-2-yl)(4-((5-methyl-2H-tetrazol-2-yl)(phenyl)methyl)piperidin-1-yl)methanone], the EC50 was found to be 11 nM. In the case of `[2H]C([2H])([2H])c1nnn(C(c2ccccc2)C2CCN(C(=O)c3cc(-c4nc5cc(NC(=O)[C@@H]6C[C@@H]6F)ccc5o4)ccn3)CC2)n1` (mixture of isomers) [Compound 201, (1S,2S)-2-fluoro-N-(2-(2-(4-((R/S)-(5-(methyl-d3)-2H-tetrazol-2-yl)(phenyl)methyl)piperidine-1-carbonyl)pyridin-4-yl)benzo[d]oxazol-5-yl)cyclopropane-1-carboxamide], the EC50 was 3.6 nM. With `O=C(c1cc(-c2nc3cc(-c4cncn4C(F)F)ccc3o2)ccn1)N1CCC(C(c2ccccc2)n2nnc(CO)n2)CC1` (racemic) [Compound 206, (R/S)-(4-(5-(1-(difluoromethyl)-1H-imidazol-5-yl)benzo[d]oxazol-2-yl)pyridin-2-yl)(4-((5-(hydroxymethyl)-2H-tetrazol-2-yl)(phenyl)methyl)piperidin-1-yl)methanone], the EC50 came out at 4.5 nM. On to `O=C(c1cc(-c2nc3cc(-c4cn(C(F)F)cn4)ccc3o2)ccn1)N1CCC(C(c2ccccc2)n2nnc(CO)n2)CC1` (racemic) [Compound 207, (R/S)-(4-(5-(1-(difluoromethyl)-1H-imidazol-4-yl)benzo[d]oxazol-2-yl)pyridin-2-yl)(4-((5-(hydroxymethyl)-2H-tetrazol-2-yl)(phenyl)methyl)piperidin-1-yl)methanone], for which the EC50 came to 1.3 nM. The value for `Cc1nnn(C(c2ccccc2)C2CCN(C(=O)c3cc(-c4nc5ccc(NC(=O)[C@@H]6C[C@@H]6F)cc5o4)ccn3)CC2)n1` (single isomer, unassigned) [Compound 134] was 4 nM. On to `Cc1nnn(C(c2ccc(F)cc2)C2CCN(C(=O)c3cc(-c4nc5cc(NC(=O)[C@@H]6C[C@@H]6F)ccc5o4)ccn3)CC2)n1` (single isomer, unassigned) [Compound 202], for which the EC50 stood at 2.6 nM. Turning to `[2H]C([2H])([2H])C(C(=O)Nc1ccc2oc(-c3ccnc(C(=O)N4CCN([C@H](c5ccccc5)c5nnn(C(F)F)n5)CC4)c3)cc2c1)C([2H])([2H])[2H]` [Compound 136, 3,3,3-trideuterio-N-[2-[2-[4-[(R)-[2-(difluoromethyl)tetrazol-5-yl]-phenyl-methyl]piperazine-1-carbonyl]-4-pyridyl]benzofuran-5-yl]-2-(trideuteriomethyl)propanamide], the EC50 was found to be 8 nM. As for `Cc1nnn([C@@H](c2ccccc2)C2CCN(C(=O)c3cc(-c4cc5cc(NC(=O)[C@@H]6C[C@@H]6F)ccc5o4)ccn3)CC2)n1` [Compound 139, (1S,2S)-2-fluoro-N-(2-(2-(4-((R)-(5-methyl-2H-tetrazol-2-yl)(phenyl)methyl)piperidine-1-carbonyl)pyridin-4-yl)benzofuran-5-yl)cyclopropanecarboxamide], the EC50 came to 4 nM. Regarding `[2H]C([2H])([2H])n1nnc(C(c2ccccc2)N2CCN(C(=O)c3cc(-c4nc5cc(NC(=O)[C@@H]6C[C@@H]6F)ccc5o4)ccn3)CC2)n1` (stereo partly drawn) [Compound 178, (1S,2S)-2-fluoro-N-(2-(2-(4-((R)-(2-Deuteratedmethyl-2H-tetrazol-5-yl)(phenyl)methyl)piperazine-1-carbonyl)pyridin-4-yl)benzo[d]oxazol-5-yl)cyclopropanecarboxamide], the EC50 turned out to be 7 nM.

As for `Cc1nnn([C@@H](c2ccsc2)C2CCN(C(=O)c3cc(-c4nc5cc(NC(=O)[C@@H]6C[C@@H]6F)ccc5o4)ccn3)CC2)n1` [Compound 203, (1S,2S)-2-fluoro-N-(2-(2-(4-((R)-(5-methyl-2H-tetrazol-2-yl)(thiophen-3-yl)methyl)piperidine-1-carbonyl)pyridin-4-yl)benzo[d]oxazol-5-yl)cyclopropanecarboxamide], the EC50 amounted to 19 nM.

For `[2H]c1c([2H])c([2H])c([C@@H](C2CCN(C(=O)c3cc(-c4nc5cc(NC(=O)[C@@H]6C[C@@H]6F)ccc5o4)ccn3)CC2)n2nnc(C)n2)c([2H])c1[2H]` [Compound 205, (1S,2S)-2-fluoro-N-[2-[2-[4-[(R)-(5-methyltetrazol-2-yl)-(2,3,4,5,6-pentadeuteriophenyl)methyl]piperidine-1-carbonyl]-4-pyridyl]-1,3-benzoxazol-5-yl]cyclopropanecarboxamide], the EC50 worked out at 5.5 nM. With `O=C(c1cc(-c2nc3cc(-c4cn(C(F)F)cn4)ccc3o2)ccn1)N1CCC(C(c2ccccc2)n2nnc(CO)n2)CC1` (centres unmarked) [Compound 217, (4-(5-(1-(difluoromethyl)-1H-imidazol-4-yl)benzo[d]oxazol-2-yl)pyridin-2-yl)(4-((5-(hydroxymethyl)-2H-tetrazol-2-yl)(phenyl)methyl)piperidin-1-yl)methanone], the EC50 was 3.3 nM.
